This note sets out measurements from ChEMBL document CHEMBL3576867, “Cytotoxic activity of rearranged drimane meroterpenoids against colon cancer cells via down-regulation of β-catenin expression” (J Nat Prod, 2015).

Calls of active or inactive are those of the source. No cut-off for these calls is given here.

In assay [1] the test system is SW480. The experiment in a line: Cytotoxicity against human SW480 cells assessed as growth inhibition at >20 uM after 48 hrs by Cell-Titer-Glo assay. The assay is classed as functional, cell-based.
In assay [2] the test system is HCT-116. The experiment in a line: Cytotoxicity against human HCT116 cells assessed as growth inhibition at >20 uM after 48 hrs by Cell-Titer-Glo assay. The class given is functional, cell-based.
In assay [3] the test system is HEK293. As to the kind of experiment: Inhibition of Wnt/beta-catenin pathway in HEK293 cells assessed as decrease in Wnt3a-CM-induced beta-catenin response regulated transcription level at 10 to 40 uM after 15 hrs by TOPflash reporter gene assay. The class given is cell-based. The note with it: Homo sapiens. On the technique in general: A reporter such as luciferase makes a cellular process visible.

The subject of assay [4] is HEK293. The experiment in a line: Inhibition of Wnt/beta-catenin pathway in HEK293 cells assessed as downregulation of Wnt3a-CM-activated beta-catenin expression at 10 to 40 uM after 15 hrs by Western blot analysis. The assay is classed as cell-based. The note with it: Homo sapiens. In general terms: In western blotting, separated proteins are transferred to a membrane and probed.

The test system of assay [5] is SW480. As to the kind of experiment: Cytotoxicity against human SW480 cells assessed as growth inhibition after 48 hrs by Cell-Titer-Glo assay. The class given is functional, cell-based. Particulars: SW480, 48 h.
Assay [6] relates to HEK293. As to the kind of experiment: Inhibition of Wnt/beta-catenin pathway in HEK293 cells assessed as decrease in Wnt3a-CM-induced beta-catenin response regulated transcription level at 1.5 to 6 uM after 15 hrs by TOPflash reporter gene assay. The assay is classed as cell-based. Particulars: Homo sapiens.
In assay [7] the test system is HCT-116. As to the kind of experiment: Cytotoxicity against human HCT116 cells assessed as growth inhibition after 48 hrs by Cell-Titer-Glo assay. The class given is functional, cell-based. Particulars: HCT-116, 48 h.
Assay [8] concerns HEK293. The experiment in a line: Inhibition of Wnt/beta-catenin pathway in HEK293 cells assessed as downregulation of Wnt3a-CM-activated beta-catenin expression at 10 to 40 uM after 15 hrs by Western blot analysis in presence of 5-epi-nakijinone. The class given is cell-based. Particulars: Homo sapiens.
The subject of assay [9] is SW480. The experiment in a line: Cytotoxicity against human SW480 cells assessed as growth inhibition at >20 uM after 48 hrs by Cell-Titer-Glo assay in presence of 5-epi-nakijinone. The class given is functional, cell-based.
The test system of assay [10] is HCT-116. The experiment in a line: Cytotoxicity against human HCT116 cells assessed as growth inhibition at >20 uM after 48 hrs by Cell-Titer-Glo assay in presence of 5-epi-nakijinone. The class given is functional, cell-based.
Assay [11] deals with HEK293. The experiment in a line: Inhibition of Wnt/beta-catenin pathway in HEK293 cells assessed as decrease in Wnt3a-CM-induced beta-catenin response regulated transcription level at 10 to 40 uM after 15 hrs by TOPflash reporter gene assay in presence of 5-epi-nakijinone. The assay is classed as cell-based. The note with it: Homo sapiens.
Assay [12] concerns HEK293. The experiment in a line: Inhibition of Wnt/beta-catenin pathway in HEK293 cells assessed as downregulation of Wnt3a-CM-activated beta-catenin expression at 1.5 to 6 uM after 15 hrs by Western blot analysis. The assay is classed as cell-based. The note with it: Homo sapiens.

On to `C=C1CCC[C@H]2[C@](C)(Cc3c(O)c(OC)cc4nc(C)oc34)[C@@H](C)CC[C@@]12C`, for which the “growth inhibition (GI)” value in the assay on SW480 [1] and with HCT-116 [2] was “Active” throughout. The inhibition result with HEK293 [3] and with HEK293 [4] was “Active” throughout.

With `C=C1CCC[C@H]2[C@](C)(CC3=C(O)C(=O)C=C(OCC)C3=O)[C@@H](C)CC[C@@]12C`, the figures for the IC50 in the assay on SW480 [5] and in the assay with HCT-116 [7] were 3.24 µM and 2.95 µM, respectively. The inhibition result in the assay on HEK293 [6] and in the assay on HEK293 [8] was “Active” throughout.

Regarding `C=C1CCC[C@H]2[C@](C)(CC3=C4OC(C)(C)N=C4C=C(OC)C3=O)[C@@H](C)CC[C@]12C`, the “growth inhibition (GI)” value in the assay on SW480 [9] and in the assay on HCT-116 [10] was “Active” throughout. Also, the inhibition entry in the assay on HEK293 [11] and with HEK293 [12] was “Active” in each case.
